Tests used:
[1] = molecular target: T1, PcSTING (Prevotella corporis, UniProt A0A133PTK7); experiment: crystal structure; LC-MS/MS of co-purified ligand; assay type: binding; conditions: co-purified endogenous ligand from E. coli; 2.25 A for the SeMet form
T1 construct: gene HMPREF3226_02659; C-terminal STING domain only; N-terminal His6-MBP or His6-SUMO tag removed by TEV; E. coli BL21(DE3); homodimer

[2] = molecular target: full-length TIR-STING protein from Myroides sp. ZB35 (MyTIR-STING) (Myroides sp. ZB35); experiment: SEC; 16/60 Superdex 200 increase column; 20 mM Tris pH 8.0, 200 mM NaCl, 5% glycerol, 1 mM TCEP; no c-di-GMP added

T1 sequence (A0A133PTK7 entry or part of it): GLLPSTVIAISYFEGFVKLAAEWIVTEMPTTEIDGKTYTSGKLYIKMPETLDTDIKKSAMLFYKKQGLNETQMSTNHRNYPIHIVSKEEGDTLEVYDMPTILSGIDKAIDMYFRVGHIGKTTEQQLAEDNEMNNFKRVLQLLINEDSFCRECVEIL

Compound	crystal structure; LC-MS/MS of co-purified ligand [1]	stoichiometry N [2]
Nc1nc2c(ncn2[C@@H]2O[C@@H]3COP(=O)(O)O[C@H]4[C@@H](O)[C@H](n5cnc6c(=O)[nH]c(N)nc65)O[C@@H]4COP(=O)(O)O[C@H]3[C@H]2O)c(=O)[nH]1 [c-di-GMP]	PcSTING/c-di-GMP and MySTING/c-di-GMP complexes have been deposited in the Protein Data Bank	–
full-length TIR-STING protein from Myroides sp. ZB35 (MyTIR-STING) (natural protein)	–	2
